From paper PMC10485820 (European Journal of Pharmaceutical Sciences, 2023)
Read-outs that look alike come from different tables or passages of the source.

What was measured:
[1] = test system: primary human plated hepatocytes; experiment: Metabolic stability in human plated hepatocytes; conditions: incubation up to 48 h, HSK7653 at 0.05 μM
Description: Reactions were stopped by removing the plates from the incubator and mixing the incubation solution with 600 μL of ice-cold stop solution (acetonitrile) at the corresponding sampling time points.

[2] = Apparent permeability in Caco-2 monolayer cell lines; format: in vitro ADME; conditions: human, Caco-2, positive controls
Description: All experiments were performed in triplicate and analyzed by high-performance liquid chromatography with tandem mass spectrometry (HPLC-MS/MS). The apparent permeability coefficient (Papp) of each compound under the corresponding concentration was calculated according to Eq. (1) and listed as follows:(1) Papp=dQ/dt×1/A×C0 Where Papp was the apparent permeability coefficient (cm/s × 10^−6), dQ/dt (pmol/second) was the rate at which the compound appears in the receiver side, C0 (nM) was the initial concentration of the compound in the donor side, and A (cm^2) represented the surface area of the cell monolayer.

Row | Half-life (t1/2) in human hepatocytes [1] [h] | Papp at 2 h ([2]; apical pH: basolateral pH 7.4: 7.4, read-out: Caco-2 permeability, calibration input) [nm/s] | Papp at 2 h ([2]; read-out: Papp) [nm/s] | SMILES
1 | 21.7 | – | – | CC[C@@]1(c2ccccc2)NC(=O)N(C)C1=O [S-mephenytoin]
2 | – | 330 | 330 | CC(C)NCC(O)COc1cccc2ccccc12 (stereo not shown) [propranolol, reference compound]
3 | – | – | 18.5 | C[C@H]1O[C@@H](O[C@H]2[C@@H](O)C[C@H](O[C@H]3[C@@H](O)C[C@H](O[C@H]4CC[C@@]5(C)[C@H](CC[C@@H]6[C@@H]5C[C@@H](O)[C@]5(C)[C@@H](C7=CC(=O)OC7)CC[C@]65O)C4)O[C@@H]3C)O[C@@H]2C)C[C@H](O)[C@@H]1O [digoxin, reference compound]
